{"source": "patent US6340702B1", "about": "(priority 1996, dated 2002)", "key": {"[1]": {"tested_on": "mouse-acclimated influenza virus A/PR/8/34 strain", "set-up": "species or system mice (BALB/C)", "conditions": "in vivo"}, "[2]": {"tested_on": "Influenza virus strain A/Yamagata/32189(H1N1)", "assay": "microbe, parasite or virus in culture", "assay_type": "cell-based"}, "[3]": {"tested_on": "mouse-acclimated influenza virus A/PR/8/34 strain", "set-up": "species or system mice (BALB/C)", "conditions": "in vivo", "remark": "listed apart in the source"}, "[4]": {"tested_on": "mouse-acclimated influenza virus A/PR/8/34 strain", "set-up": "species or system mice (BALB/C)", "conditions": "in vivo", "remark": "listed apart in the source"}, "[5]": {"biological_target": "crude influenza virus sialidase (Influenza A virus, UniProt P03468)", "sequence (P03468 whole entry, looked up)": "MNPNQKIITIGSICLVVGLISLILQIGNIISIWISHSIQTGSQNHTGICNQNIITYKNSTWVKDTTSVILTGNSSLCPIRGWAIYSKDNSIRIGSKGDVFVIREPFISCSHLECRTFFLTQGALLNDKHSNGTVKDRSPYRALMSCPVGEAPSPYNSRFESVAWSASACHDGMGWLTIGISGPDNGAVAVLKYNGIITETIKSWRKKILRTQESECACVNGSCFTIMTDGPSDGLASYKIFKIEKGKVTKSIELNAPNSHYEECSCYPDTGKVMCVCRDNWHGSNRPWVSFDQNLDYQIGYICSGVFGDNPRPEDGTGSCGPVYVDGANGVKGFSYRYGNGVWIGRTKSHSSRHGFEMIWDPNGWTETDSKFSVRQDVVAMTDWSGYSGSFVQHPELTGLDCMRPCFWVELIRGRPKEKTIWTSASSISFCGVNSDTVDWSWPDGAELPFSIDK", "conditions": "Table 5; absorbance at 415 nm reduced by 50%, pH 6.5, 37° C., 20 minutes", "description": "In this experiment, a sample of influenza virus strain A/PR/8/34(H1N1) was dissolved by means of a surfactant, after which the virus membrane fraction was purified by centrifugation.\nAn enzyme solution was first prepared such that the final enzyme activity was 0.001 1 units/ml (1 unit corresponds to that amount of enzyme which hydrolyzes 1 μmole of substrate in 1 minute). Also prepared beforehand were aqueous solutions of test compound in various concentrations; an aqueous solution of the substrate to a concentration of 33 μg/ml, and a 20 mM 2-(N-morpholino)-ethanesulfonic acid buffer (pH 6.5) containing 50 mM calcium chloride. These solutions were combined to prepare a mixture having a final volume of 150 μl, and which was then left to stand at 37° C. for 20 minutes."}}, "note": "Several values for one entry are separate records, joined by “and”; a condition that tells them apart may be missing. Identical values can stand only once. Counter-ions that a name gives are not always drawn. Like-named read-outs stand apart in the source and are kept apart here.", "data": [{"smiles": "CC(=O)NC1C(NC(=N)N)C=C(C(=O)O)O[C@H]1C(O)C(O)CO", "note": "(stereo partly drawn) [Compound A, reference compound]", "values": [{"measurement": "number of surviving mice divided by the number of test mice, Day 3", "setting": "[1]", "value": "3/7"}, {"measurement": "number of surviving mice divided by the number of test mice, Day 10", "setting": "[1]", "value": "dead"}, {"measurement": "IC50", "setting": "[2]; unidentified influenza virus, H1N1, MDCK, 40 h, Table 3, plaque number reduced to 50%, MDCK cells", "value": 4.7, "unit": "nM"}, {"measurement": "IC50", "setting": "[2]; unidentified influenza virus, H1N1, MDCK, 40 h, Table 4, plaque number reduced to 50%, MDCK cells", "value": 11, "unit": "nM"}, {"measurement": "number of surviving mice divided by the number of test mice, Day 10", "setting": "[3]", "value": "dead"}, {"measurement": "number of surviving mice divided by the number of test mice, Day 8", "setting": "[4]", "value": "one"}]}, {"smiles": "CCCCCCCCCCCCCCOC(=O)C1=CC(NC(=N)N)C(NC(C)=O)[C@H](C(O)C(O)CO)O1.O=C(O)C(F)(F)F", "note": "(stereo partly drawn) [Example 1′, Myristyl 5-acetamido-2,3,4,5-tetradeoxy-4-guanidino-D-glycero-D-galacto-non-2-enopyranosoate trifluoroacetic acid salt]", "values": [{"measurement": "influenza infection therapeutic effects compared with Compound A", "setting": "[1]", "value": "superior to those of Compound A"}, {"measurement": "number of surviving mice divided by the number of test mice, Day 3", "setting": "[1]", "value": "5/8"}, {"measurement": "number of surviving mice divided by the number of test mice, Day 6", "setting": "[1]", "value": "8/8"}, {"measurement": "influenza infection therapeutic effects compared with Compound A", "setting": "[3]", "value": "superior to those of Compound A"}, {"measurement": "number of surviving mice divided by the number of test mice, Day 8", "setting": "[3]", "value": "4/12"}]}, {"smiles": "CCCCCCOC(=O)C1=CC(NC(=N)N)C(NC(C)=O)[C@H](C(O)C(O)CO)O1.O=C(O)C(F)(F)F", "note": "(stereo partly drawn) [Example 2′, Hexyl 5-acetamido-2,3,4,5-tetradeoxy-4-guanidino-D-glycero-D-galacto-non-2-enopyranosoate trifluoroacetic acid salt]", "values": [{"measurement": "influenza infection therapeutic effects compared with Compound A", "setting": "[1]", "value": "superior to those of Compound A"}, {"measurement": "number of surviving mice divided by the number of test mice, Day 3", "setting": "[1]", "value": "2/8"}, {"measurement": "number of surviving mice divided by the number of test mice, Day 6", "setting": "[1]", "value": "8/8"}, {"measurement": "number of surviving mice divided by the number of test mice, Day 10", "setting": "[1]; trifluoroacetic acid salt", "value": "1 and 1/8"}]}, {"smiles": "CCCCCCCCCCCCCC(=O)OCC(O)C(O)[C@@H]1OC(C(=O)O)=CC(NC(=N)N)C1NC(C)=O.O=C(O)C(F)(F)F", "note": "(stereo partly drawn) [Example 3′, 5-Acetamido-2,3,4,5-tetradeoxy-4-guanidino-9-O-myristoyl-D-glvcero-D-galacto-non-2-enopyranosoic acid trifluoroacetic acid salt]", "values": [{"measurement": "number of surviving mice divided by the number of test mice, Day 6", "setting": "[4]", "value": "10/10"}, {"measurement": "number of surviving mice divided by the number of test mice, Day 8", "setting": "[4]", "value": "10/10"}]}, {"smiles": "CCCCCC(=O)OCC(O)C(O)[C@@H]1OC(C(=O)O)=CC(NC(=N)N)C1NC(C)=O.O=C(O)C(F)(F)F", "note": "(stereo partly drawn) [Example 4′, 5-Acetamido-2,3,4,5-tetradeoxy-4-guanidino-9-O-hexanoyl-D-glycero-D-galacto-non-2-enopyranosoic acid trifluoroacetic acid salt]", "values": [{"measurement": "number of surviving mice divided by the number of test mice, Day 6", "setting": "[4]", "value": "10/10"}, {"measurement": "number of surviving mice divided by the number of test mice, Day 8", "setting": "[4]", "value": "6/10"}]}, {"smiles": "CCCCCCCC(=O)OCC(O)C(O)[C@@H]1OC(C(=O)O)=CC(NC(=N)N)C1NC(C)=O.O=C(O)C(F)(F)F", "note": "(stereo partly drawn) [Example 5′, 5-Acetamido-2,3,4,5-tetradeoxy-4-guanidino-9-O-octanoyl-D-glycero-D-galacto-non-2-enopyranosoic acid trifluoroacetic acid salt]", "values": [{"measurement": "number of surviving mice divided by the number of test mice, Day 6", "setting": "[4]", "value": "11/11"}, {"measurement": "number of surviving mice divided by the number of test mice, Day 8", "setting": "[4]", "value": "10/11"}]}, {"smiles": "CCCCCCCCCC(=O)OCC(O)C(O)[C@@H]1OC(C(=O)O)=CC(NC(=N)N)C1NC(C)=O.O=C(O)C(F)(F)F", "note": "(stereo partly drawn) [Example 6′, 5-Acetamido-2,3,4,5-tetradeoxy-4-guanidino-9-O-decanoyl-D-glycero-D-galacto-non-2-enopyranosoic acid trifluoroacetic acid salt]", "values": [{"measurement": "number of surviving mice divided by the number of test mice, Day 6", "setting": "[4]", "value": "11/11"}, {"measurement": "number of surviving mice divided by the number of test mice, Day 8", "setting": "[4]", "value": "10/11"}]}, {"smiles": "CCCCCCCCCCCCCCCC(=O)OCC(O)C(O)[C@@H]1OC(C(=O)O)=CC(NC(=N)N)C1NC(C)=O.O=C(O)C(F)(F)F", "note": "(stereo partly drawn) [Example 7′, 5-Acetamido-2,3,4,5-tetradeoxy-4-guanidino-9-O-palmitoyl-D-glycero-D-galacto-non-2-enopyranosoic acid trifluoroacetic acid salt]", "values": [{"measurement": "number of surviving mice divided by the number of test mice, Day 6", "setting": "[4]", "value": "10/10"}, {"measurement": "number of surviving mice divided by the number of test mice, Day 8", "setting": "[4]", "value": "3/10"}]}, {"smiles": "CCCCCCCCCCCC(=O)OCC(O)C(O)[C@@H]1OC(C(=O)O)=CC(NC(=N)N)C1NC(C)=O.O=C(O)C(F)(F)F", "note": "(stereo partly drawn) [Example 8′, 5-Acetamido-2,3,4,5-tetradeoxy-4-guanidino-9-O-dodecanoyl-D-glycero-D-galacto-non-2-enopyranosoic acid trifluoroacetic acid salt]", "values": [{"measurement": "number of surviving mice divided by the number of test mice, Day 6", "setting": "[4]", "value": "11/11"}, {"measurement": "number of surviving mice divided by the number of test mice, Day 8", "setting": "[4]", "value": "2/11"}]}, {"smiles": "CCCCCCCCCCCCCCCCCC(=O)OCC(O)C(O)[C@@H]1OC(C(=O)O)=CC(NC(=N)N)C1NC(C)=O.O=C(O)C(F)(F)F", "note": "(stereo partly drawn) [Example 9′, 5-Acetamido-2,3,4,5-tetradeoxy-4-guanidino-9-O-octadecanoyl-D-glycero-D-galacto-non-2-enopyranosoic acid trifluoroacetic acid salt]", "values": [{"measurement": "number of surviving mice divided by the number of test mice, Day 6", "setting": "[4]", "value": "10/10"}, {"measurement": "number of surviving mice divided by the number of test mice, Day 8", "setting": "[4]", "value": "4/10"}]}, {"smiles": "CCCCCCCCCCCCCCCCOC(=O)C1=CC(NC(=N)N)C(NC(C)=O)[C@H](C(O)C(O)CO)O1.O=C(O)C(F)(F)F", "note": "(stereo partly drawn) [Example 10′, Cetyl 5-acetamido-2,3,4,5-tetradeoxy-4-guanidino-D-glycero-D-galacto-non-2-enopyranosoate trifluoroacetic acid salt]", "values": [{"measurement": "influenza infection therapeutic effects compared with Compound A", "setting": "[3]", "value": "superior to those of Compound A"}, {"measurement": "number of surviving mice divided by the number of test mice, Day 8", "setting": "[3]", "value": "10/12"}]}, {"smiles": "CCCCCCCCCCCCCCCCCCOC(=O)C1=CC(NC(=N)N)C(NC(C)=O)[C@H](C(O)C(O)CO)O1.O=C(O)C(F)(F)F", "note": "(stereo partly drawn) [Example 11′, Stearyl 5-acetamido-2,3,4,5-tetradeoxy-4-guanidino-D-glycero-D-galacto-non-2-enopyranosoate trifluoroacetic acid salt]", "values": [{"measurement": "influenza infection therapeutic effects compared with Compound A", "setting": "[3]", "value": "superior to those of Compound A"}, {"measurement": "number of surviving mice divided by the number of test mice, Day 8", "setting": "[3]", "value": "11/11"}]}, {"smiles": "CO[C@@H]([C@@H]1OC(C(=O)O)=C[C@H](N=C(N)N)[C@H]1NC(C)=O)[C@H](O)CO", "note": "[Example 28, 5-Acetamido-4-guanidino-2,3,4,5,7-pentadeoxy-7-methoxy-D-glycero-D-galacto-non-2-enopyranosoic acid trifluoroacetic acid salt]", "values": [{"measurement": "IC50", "setting": "[2]; read-out: IC50", "value": 1.7, "unit": "nM"}]}, {"smiles": "CCO[C@@H]([C@@H]1OC(C(=O)O)=C[C@H](N=C(N)N)[C@H]1NC(C)=O)[C@H](O)CO", "note": "[Example 30, 5-Acetamido-4-guanidino-2,3,4,5,7-pentadeoxy-7-ethoxy-D-glycero-D-galacto-non-2-enoic acid trifluoroacetic acid salt]", "values": [{"measurement": "IC50", "setting": "[2]; read-out: IC50", "value": 0.8, "unit": "nM"}, {"measurement": "IC50", "setting": "[5]", "value": 7, "unit": "nM"}]}]}
